Where two headings read alike, the source gives them in different places.

The subject of one experiment is UM-UC-9 engineered cells. The experiment is described as follows: Cell proliferation / short-term viability assay, CellTiter-Glo 144 h. The experiment is classed as cell-based, human. The note with it: read-out: CTGlo 144 h UMUC9.5, G150. The procedure, abridged:
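Viability read by CellTiter-Glo 2.0 luminescence at day 7 versus DMSO-vehicle wells and a T0 plate measured on day 0. Cells: UM-UC-9 engineered assay-ready stocks, 500 cells/well in high-glucose DMEM with 10% FBS, 37° C, 5% CO2.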
A general note: Cellular ATP, detected with luciferase, serves as a proxy for viable cell number.

In the next experiment the target is T1, His6-TEV-PPARγ-(234-505) (Homo sapiens, UniProt P37231).
T1 construct: The His6-TEV-PPARγ-(234-505) protein for assay was expressed and purified; TEV cleavage site (N); made in house
T1 sequence (P37231 234-505): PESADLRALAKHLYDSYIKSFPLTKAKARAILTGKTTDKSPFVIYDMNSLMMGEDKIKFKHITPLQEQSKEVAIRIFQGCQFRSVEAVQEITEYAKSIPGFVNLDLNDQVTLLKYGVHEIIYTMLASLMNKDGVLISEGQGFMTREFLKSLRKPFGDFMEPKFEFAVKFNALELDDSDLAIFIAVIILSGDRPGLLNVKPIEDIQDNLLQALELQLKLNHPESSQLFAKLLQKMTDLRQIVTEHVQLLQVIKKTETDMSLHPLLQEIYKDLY
As to the kind of experiment: TR-FRET Assay to Measure Co-R Peptide Recruitment to PPARγ. The experiment is classed as biochemical. The note with it: Co-R peptide (SMRT-ID2) recruitment, top final concentration 20 μM, read-out: TR-FRET i-Ag, AC50. The procedure, abridged:
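Corepressor recruitment is measured by adding terbium-labeled anti-His antibody and FITC SMRT-ID2 peptide, at 5 and 200 nM final, after a 20-minute room-temperature protein–compound incubation. After one further hour, signal is converted to percent response between DMSO and 500 nM T0070907 wells.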
(Time-resolved FRET reads energy transfer from a long-lived donor to a nearby acceptor.)

In the case of `COc1cc(-c2cc(C(=O)N3[C@@H]4CC[C@H]3C[C@H](C(=O)NC3CCC(O)(C(F)(F)C(F)(F)F)CC3)C4)n[nH]2)c(F)cn1` (mixture of isomers) [Example 301, (1R,3s,5S)-8-(5-(5-fluoro-2-methoxypyridin-, 1-yl)-1H-pyrazole-3-carbonyl)-N-(4-hydroxy-4-(perfluoroethyl)cyclohexyl)-8-azabicyclo[3.2.1]octane-3-carboxamide], in the experiment with UM-UC-9 engineered cells (Homo sapiens, UM-UC-9, 144 h), the IC50 is 74.8 nM. At His6-TEV-PPARγ-(234-505), the AC50 stood at 15.9 nM.
Regarding `COc1cc(-c2cc(C(=O)N3CCC(C(=O)NCC4CC(F)(F)CO4)CC3)n[nH]2)c(Cl)cn1` (racemic) [Example 220, 1-(5-(5-chloro-2-methoxypyridin-4-yl)-1H-pyrazole-3-carbonyl)-N-((4,4-difluorotetrahydrofuran-2-yl)methyl)piperidine-4-carboxamide], in the experiment with UM-UC-9 engineered cells (Homo sapiens, UM-UC-9, 144 h), the IC50 was determined as 2130 nM. Besides, the AC50 on His6-TEV-PPARγ-(234-505) was 286 nM.
With `COc1cc(-c2cc(C(=O)N3CCC(C(=O)NC4CN(CC(C)(C)F)CC4(F)F)CC34CC4)n[nH]2)c(F)cn1` (mixture of isomers) [Example 379, (S)—N—((S)-4,4-difluoro-1-(2-fluoro-2-methylpropyl)pyrrolidin-3-yl)-4-(5-(5-fluoro-2-methoxypyridin-4-yl)-1H-pyrazole-3-carbonyl)-4-azaspiro[2.5]octane-7-carboxamide and (S)—N—((R)-4,4-difluoro-1-(2-fluoro-2-methylpropyl)pyrrolidin-3-yl)-4-(5-(5-fluoro-2-methoxypyridin-4-yl)-1H-pyrazole-3-carbonyl)-4-azaspiro[2.5]octane-7-carboxamide], the IC50 in the experiment on UM-UC-9 engineered cells turned out to be 11 nM. Also, at His6-TEV-PPARγ-(234-505), the AC50 was found to be 12.2 nM.
Consider `COc1cc(-c2cc(C(=O)N3CC[C@H](C(=O)NCc4ncc(N5C[C@H]6C[C@@H]5CN6)cn4)CC34CC4)[nH]n2)c(F)cn1` (mixture of isomers) [Example 467, (S)—N-((5-((1R,4R)-2,5-diazabicyclo[2.2.1]heptan-2-yl)pyrimidin-2-yl)methyl)-4-(3-(5-fluoro-2-methoxypyridin-4-yl)-1H-pyrazole-5-carbonyl)-4-azaspiro[2.5]octane-7-carboxamide and (S)—N-((5-((1S,4S)-2,5-diazabicyclo[2.2.1]heptan-2-yl)pyrimidin-2-yl)methyl)-4-(3-(5-fluoro-2-methoxypyridin-4-yl)-1H-pyrazole-5-carbonyl)-4-azaspiro[2.5]octane-7-carboxamide], for which, in the experiment with UM-UC-9 engineered cells (Homo sapiens, UM-UC-9, 144 h), the IC50 is above 10000 nM. In addition, on His6-TEV-PPARγ-(234-505), the AC50 turned out to be 951 nM.
As to `COc1cc(-c2cc(C(=O)N3CCC(C(=O)NCc4cccc(Cl)c4)CC3)n[nH]2)c(Cl)cn1` [Example 112, 1-[5-(5-chloro-2-methoxypyridin-4-yl)-1H-pyrazole-3-carbonyl]-N-[(3-chlorophenyl)methyl]piperidine-4-carboxamide], the IC50 in the experiment on UM-UC-9 engineered cells (Homo sapiens, UM-UC-9, 144 h) turned out to be 111 nM. Moreover, the AC50 at His6-TEV-PPARγ-(234-505) worked out at 30.3 nM.
For `COc1cc(-c2cc(C(=O)N3[C@@H]4CC[C@H]3C[C@H](C(=O)NC3CCC5(CCO5)CC3)C4)n[nH]2)c(F)cn1` (mixture of isomers) [Example 297, (1R,3S,5S)-8-[5-(5-fluoro-2-methoxypyridin-4-yl)-1H-pyrazole-3-carbonyl]-N-[1-oxaspiro[3.5]nonan-7-yl]-8-azabicyclo[3.2.1]octane-3-carboxamide], the IC50 in the experiment on UM-UC-9 engineered cells (Homo sapiens, UM-UC-9, 144 h) was 383 nM. The AC50 at His6-TEV-PPARγ-(234-505) amounted to 120 nM.
In the case of `COc1cc(-c2cc(C(=O)N3CCC(C(=O)N[C@H]4CCOc5ccc(C#N)cc54)CC3)n[nH]2)c(Cl)cn1` [Example 233, (S)-1-(5-(5-chloro-2-methoxypyridin-4-yl)-1H-pyrazole-3-carbonyl)-N-(6-cyanochroman-4-yl)piperidine-4-carboxamide], the IC50 in the experiment with UM-UC-9 engineered cells (Homo sapiens, UM-UC-9, 144 h) amounted to 3430 nM. At His6-TEV-PPARγ-(234-505), the AC50 was 196 nM.
Regarding `COc1cc(-c2cc(C(=O)N3CCC(C(=O)NCc4ccc5cc[nH]c5n4)CC3)n[nH]2)c(Cl)cn1` [Example 226, N-((1H-pyrrolo[2,3-b]pyridin-6-yl)methyl)-1-(5-(5-chloro-2-methoxypyridin-4-yl)-1H-pyrazole-3-carbonyl)piperidine-4-carboxamide], the IC50 with UM-UC-9 engineered cells (Homo sapiens, UM-UC-9, 144 h) came to 427 nM. Also, the AC50 on His6-TEV-PPARγ-(234-505) was 42.8 nM.
Consider `COc1cc(-c2cc(C(=O)N3CC[C@H](C(=O)N[C@H]4CC[C@@](OC[C@H](C)N)(C(F)(F)F)CC4)CC34CC4)n[nH]2)c(F)cn1` [Example 352, (S)—N-((1548)-4-((S)-2-aminopropoxy)-4-(trifluoromethyl)cyclohexyl)-4-(5-(5-fluoro-2-methoxypyridin-4-yl)-1H-pyrazole-3-carbonyl)-4-azaspiro[2.5]octane-7-carboxamide], for which the IC50 in the experiment with UM-UC-9 engineered cells (Homo sapiens, UM-UC-9, 144 h) stood at 134 nM. At His6-TEV-PPARγ-(234-505), the AC50 is 7.7 nM.
In the case of `COc1cc(-c2cc(C(=O)N3CCC(C(=O)NC4CCCC(F)(F)C4)CC3)n[nH]2)c(Cl)cn1` (stereo not shown) [Example 143, 1-(5-(5-chloro-2-methoxypyridin-4-yl)-1H-pyrazole-3-carbonyl)-N-(3,3-difluorocyclohexyl)piperidine-4-carboxamide], the IC50 in the experiment with UM-UC-9 engineered cells (Homo sapiens, UM-UC-9, 144 h) turned out to be 3310 nM. At His6-TEV-PPARγ-(234-505), the AC50 was 910 nM.
As to `COc1cc(-c2cc(C(=O)N3CCC(C(=O)N[C@@H]4CCN(c5ccccc5F)C4)CC34CC4)n[nH]2)c(F)cn1` (stereo partly drawn) [Example 296, 4-[5-(5-fluoro-2-methoxypyridin-4-yl)-1H-pyrazole-3-carbonyl]-N—[(R)-1-(2-fluorophenyl)pyrrolidin-3-yl]-4-azaspiro[2.5]octane-7-carboxamide], the IC50 with UM-UC-9 engineered cells (Homo sapiens, UM-UC-9, 144 h) was 4.1 nM. Besides, the AC50 on His6-TEV-PPARγ-(234-505) is 19.8 nM.
In the case of `COc1cc(-c2cc(C(=O)N3CCC(C(=O)NC4CCC(C(F)(F)F)CC4)CC3)n[nH]2)c(Cl)cn1` (single isomer, unassigned) [Example 118-A], the IC50 in the experiment with UM-UC-9 engineered cells (listed as 118a) came out at 116 nM. Also, at His6-TEV-PPARγ-(234-505) (listed as 118a), the AC50 is 15.5 nM.
Turning to `CO[C@]1(C(F)(F)F)CC[C@H](NC(=O)[C@H]2CCN(C(=O)c3cc(-c4cc(C)ncn4)[nH]n3)C3(CC3)C2)CC1` (single isomer, unassigned) [Example 309-B], the IC50 with UM-UC-9 engineered cells (Homo sapiens, UM-UC-9, 144 h) stood at 302 nM. Besides, the AC50 on His6-TEV-PPARγ-(234-505) amounted to 49.5 nM.
Regarding `COc1cc(-c2cc(C(=O)N3CCC(C(=O)NC4CCCc5c4ccc(=O)n5C)CC3)n[nH]2)c(Cl)cn1` (racemic) [Example 234, 1-(5-(5-chloro-2-methoxypyridin-4-yl)-1H-pyrazole-3-carbonyl)-N-(1-methyl-2-oxo-1,2,5,6,7,8-hexahydroquinolin-5-yl)piperidine-4-carboxamide], the IC50 in the experiment with UM-UC-9 engineered cells (Homo sapiens, UM-UC-9, 144 h) is above 10000 nM. The AC50 at His6-TEV-PPARγ-(234-505) worked out at 927 nM.
Regarding `COc1cc(-c2cc(C(=O)N3CCC(C(=O)NCc4cn5cc(Cl)ccc5n4)CC3)n[nH]2)c(Cl)cn1` [Example 219, 1-(5-(5-chloro-2-methoxypyridin-4-yl)-1H-pyrazole-3-carbonyl)-N-((6-chloroimidazo[1,2-a]pyridin-2-yl)methyl)piperidine-4-carboxamide], in the experiment on UM-UC-9 engineered cells (Homo sapiens, UM-UC-9, 144 h), the IC50 amounted to 1610 nM. Moreover, the AC50 on His6-TEV-PPARγ-(234-505) was determined as 94.5 nM.
On to `COc1cc(-c2cc(C(=O)N3CCC(C(=O)NCc4cn5ccccc5n4)CC3)n[nH]2)c(Cl)cn1` [Example 119, 1-(5-(5-chloro-2-methoxypyridin-4-yl)-1H-pyrazole-3-carbonyl)-N-(imidazo[1,2-a]pyridin-2-ylmethyl)piperidine-4-carboxamide], for which the IC50 in the experiment with UM-UC-9 engineered cells (Homo sapiens, UM-UC-9, 144 h) was above 5000 nM. For the same molecule, the AC50 at His6-TEV-PPARγ-(234-505) turned out to be 337 nM.
For `COc1cc(-c2cc(C(=O)N3CCC(C(=O)N[C@H]4CC[C@@](O)(C(F)(F)F)CC4)CC3)n[nH]2)c(Cl)cn1` [Example 199, 1-(5-(5-chloro-2-methoxypyridin-4-yl)-1H-pyrazole-3-carbonyl)-N-((1r,4r)-4-hydroxy-4-(trifluoromethyl)cyclohexyl)piperidine-4-carboxamide] the same measures were 140 nM and 32 nM.
`COc1cc(-c2cc(C(=O)N3CCC(C(=O)N[C@H]4CC[C@@](O)(C(F)(F)F)CC4)C[C@@H]3C(F)(F)F)n[nH]2)c(F)cn1` (mixture of isomers) [Example 368, (2R,4R)-1-(5-(5-fluoro-2-methoxypyridin-4-yl)-1H-pyrazole-3-carbonyl)-N-((1r,4R)-4-hydroxy-4-(trifluoromethyl)cyclohexyl)-2-(trifluoromethyl)piperidine-4-carboxamide and (2R,4S)-1-(5-(5-fluoro-2-methoxypyridin-4-yl)-1H-pyrazole-3-carbonyl)-N-((1r,4S)-4-hydroxy-4-(trifluoromethyl)cyclohexyl)-2-(trifluoromethyl)piperidine-4-carboxamide]: the IC50 in the experiment with UM-UC-9 engineered cells (Homo sapiens, UM-UC-9, 144 h) stood at 497 nM. The AC50 on His6-TEV-PPARγ-(234-505) was 244 nM.
Regarding `COc1cc(-c2cc(C(=O)N3CCC(C(=O)NCc4ccc5[nH]ccc5c4)CC3)n[nH]2)c(Cl)cn1` [Example 122, N-((1H-indol-5-yl)methyl)-1-(5-(5-chloro-2-methoxypyridin-4-yl)-1H-pyrazole-3-carbonyl)piperidine-4-carboxamide], in the experiment with UM-UC-9 engineered cells (Homo sapiens, UM-UC-9, 144 h), the IC50 stood at 66.1 nM. Moreover, on His6-TEV-PPARγ-(234-505), the AC50 amounted to 11 nM.
As for `COc1cc(-c2cc(C(=O)N3CC[C@H](C(=O)NC4CCN(C5COC56CCC6)C4)CC34CC4)n[nH]2)c(F)cn1` (single isomer, unassigned) [Example 464-D], the IC50 in the experiment with UM-UC-9 engineered cells (Homo sapiens, UM-UC-9, 144 h) is 25.2 nM. Also, the AC50 at His6-TEV-PPARγ-(234-505) was 7.6 nM.

The values above are taken from US12606541B2, “PPARg modulators and methods of use” (Eisai R&D Management Co., Ltd., priority 2020, dated 2026).
